Structures are written as SMILES. ≈ marks a conversion by molar mass, not a printed value. Counter-ions that a name gives are not always drawn. Like-named read-outs stand apart in the source and are kept apart here.

Data on 13 compounds can be found in patent publication US4691024A, “New mitomycin derivatives, preparation thereof and pharmaceutical compositions containing them” (priority 1984, dated 1987).

Common to all, as to type: cell-based
Assay [1] relates to Klebsiella pneumoniae ATCC 10031. The assay can be described thus: microbe, parasite or virus in culture. As to conditions: ATCC10031, pH 7, read-out: MIC, Klebsiella pneumoniae (KP). An excerpt:
In this table, the following symbols are used:
KP: Klebsiella pneumoniae ATCC 10031

Assay [2] has as its system Proteus vulgaris ATCC 6897. Briefly: Antibacterial activity, minimum growth inhibitory concentration by agar dilution method (PV). As for the experimental part:
(§1) The various compounds of formula (I) of Examples 1-26 were tested for antibacterial activity against 6 microorganisms. […]. In this table, the following symbols are used:
PV: Proteus vulgaris ATCC 6897

The subject of assay [3] is Streptococcus faecalis ATCC 10541. The assay can be described thus: Antibacterial activity, minimum growth inhibitory concentration by agar dilution method (SF). The note with it: Enterococcus faecalis. The method, then:
as §1
SF: Streptococcus faecalis ATCC 10541

Another assay relates to Bacillus subtilis 10707. Briefly: Antibacterial activity, minimum growth inhibitory concentration by agar dilution method (BS). The method, then:
as §1
BS: Bacillus subtilis 10707

Assay [4] has as its system Shigella sonnei ATCC 9290. Briefly: Antibacterial activity, minimum growth inhibitory concentration by agar dilution method (SS). The method, then:
as §1
SS: Shigella sonnei ATCC 9290
For orientation: In agar dilution the substance is mixed into plates at graded concentrations.

Assay [5] relates to Staphylococcus aureus ATCC 6538P. Briefly: Antibacterial activity, minimum growth inhibitory concentration by agar dilution method (SA). As to conditions: ATCC6538P. The method, then: as §1
SA: Staphylococcus aureus ATCC 6538P

Where [6] appears, read: ATCC6897, pH 7, read-out: MIC, Proteus vulgaris (PV).
The mark [7] stands for this setting: ATCC10541, pH 7, read-out: MIC, Streptococcus faecalis (SF).
Setting [8] is: Bacillus subtilis, 10707, pH 7, read-out: MIC, Bacillus subtilis (BS).
The mark [9] stands for this setting: ATCC9290, pH 7, read-out: MIC, Shigella sonnei (SS).
Setting [10] is: pH 7, read-out: MIC, Staphylococcus aureus (SA).

For the compound `CO[C@@]12[C@H](COC(N)=O)C3=C(C(=O)C(C)=C(NCCSSCCC(N)C(=O)O)C3=O)N1C[C@@H]1N[C@@H]12` (mixture of isomers) [Compound 24, 7-N-[2-[(DL-Homocystein-S-yl)thio]ethyl]mitomycin C], the MIC in assay [1] was 0.31 µg/mL; in assay [2] (setting [6]), 1.3 µg/mL; in assay [3] (setting [7]) it was 0.63 µg/mL; in the assay with Bacillus subtilis 10707 (setting [8]) it was less than 0.02 µg/mL; in assay [4] (setting [9]), 40 µg/mL; in assay [5] (setting [10]), 0.08 µg/mL.

Consider `CO[C@@]12[C@H](COC(N)=O)C3=C(C(=O)C(C)=C(NCCSSc4ccccc4)C3=O)N1C[C@@H]1N[C@@H]12` [Compound 1, 7-N-[2-(Phenyldithio)ethyl]mitomycin C], for which the MIC in assay [1] is 0.31 µg/mL (≈ 0.617 µM); in assay [2] (setting [6]), 1.3 µg/mL (≈ 2.59 µM); in assay [3] (setting [7]), 0.02 µg/mL (≈ 0.0398 µM); in the assay on Bacillus subtilis 10707 (setting [8]) it was less than 0.01 µg/mL; in assay [4] (setting [9]), 20 µg/mL (≈ 39.8 µM); in assay [5] (setting [10]) it was 0.02 µg/mL (≈ 0.0398 µM).

In the case of `CO[C@@]12[C@H](COC(N)=O)C3=C(C(=O)C(C)=C(NCCSSc4ccccc4N)C3=O)N1C[C@@H]1N[C@@H]12` [Compound 2, 7-N-[2-(2-Aminophenyldithio)ethyl]mitomycin C], the MIC was 0.31 µg/mL (≈ 0.599 µM) in assay [1]; 2.5 µg/mL (≈ 4.83 µM) in assay [2] (setting [6]); less than 0.02 µg/mL in assay [3] (setting [7]); less than 0.02 µg/mL in the assay on Bacillus subtilis 10707 (setting [8]); 20 µg/mL (≈ 38.6 µM) in assay [4] (setting [9]); 0.04 µg/mL (≈ 0.0773 µM) in assay [5] (setting [10]).

Regarding `CO[C@@]12[C@H](COC(N)=O)C3=C(C(=O)C(C)=C(NCCSSc4ccc(NC(C)=O)cc4)C3=O)N1C[C@H]1[C@@H]2N1C` (some centres unmarked) [Compound 6, 7-N-[2-(4-Acetamidophenyldithio)ethyl]porfiromycin], the MIC in assay [1] is more than 20 µg/mL; in assay [3] (setting [7]) it was 0.63 µg/mL (≈ 1.1 µM); in the assay with Bacillus subtilis 10707 (setting [8]), 0.08 µg/mL (≈ 0.139 µM); in assay [5] (setting [10]), 1.3 µg/mL (≈ 2.27 µM).

For `CO[C@@]12[C@H](COC(N)=O)C3=C(C(=O)C(C)=C(NCCSSc4ccc([N+](=O)[O-])cc4)C3=O)N1C[C@@H]1N[C@@H]12` [Compound 8, 7-N-[2-(4-Nitrophenyldithio)ethyl]mitomycin C], the MIC in assay [1] is 1.3 µg/mL (≈ 2.37 µM); in assay [2] (setting [6]), 2.5 µg/mL (≈ 4.57 µM); in assay [3] (setting [7]), 0.16 µg/mL (≈ 0.292 µM); in the assay with Bacillus subtilis 10707 (setting [8]) it was 0.08 µg/mL (≈ 0.146 µM); in assay [4] (setting [9]), 5 µg/mL (≈ 9.13 µM); in assay [5] (setting [10]), 0.16 µg/mL (≈ 0.292 µM).

With `CO[C@@]12[C@H](COC(N)=O)C3=C(C(=O)C(C)=C(NCCSSc4ccc(C)cc4)C3=O)N1C[C@@H]1N[C@@H]12` [Compound 10, 7-N-[2-(4-Methylphenyldithio)ethyl]mitomycin C], the MIC in assay [1] is 1.3 µg/mL (≈ 2.52 µM); in assay [2] (setting [6]), 2.5 µg/mL (≈ 4.84 µM); in assay [3] (setting [7]), 0.08 µg/mL (≈ 0.155 µM); in the assay on Bacillus subtilis 10707 (setting [8]), 0.02 µg/mL (≈ 0.0387 µM); in assay [4] (setting [9]) it was more than 20 µg/mL; in assay [5] (setting [10]), 0.04 µg/mL (≈ 0.0774 µM).

In the case of `CO[C@@]12[C@H](COC(N)=O)C3=C(C(=O)C(C)=C(NCCSSc4c(F)c(F)cc(F)c4F)C3=O)N1C[C@@H]1N[C@@H]12` [Compound 13, 7-N-[2-(2,3,5,6-Tetrafluorophenyldithio)ethyl]mitomycin C], the MIC was 0.63 µg/mL (≈ 1.1 µM) in assay [1]; 5 µg/mL (≈ 8.7 µM) in assay [2] (setting [6]); 0.31 µg/mL (≈ 0.54 µM) in assay [3] (setting [7]); 0.02 µg/mL (≈ 0.0348 µM) in the assay on Bacillus subtilis 10707 (setting [8]); 10 µg/mL (≈ 17.4 µM) in assay [4] (setting [9]); 0.16 µg/mL (≈ 0.278 µM) in assay [5] (setting [10]).

As for `CO[C@@]12[C@H](COC(N)=O)C3=C(C(=O)C(C)=C(NCCSSC[C@H](NC(C)=O)C(=O)O)C3=O)N1C[C@@H]1N[C@@H]12` [Compound 19, 7-N-[2-[(N-Acetyl-L-cystein-S-yl)thio]ethyl]mitomycin C potassium salt], the MIC in assay [1] is 0.63 µg/mL; in assay [2] (setting [6]), 2.5 µg/mL; in assay [3] (setting [7]), 1.3 µg/mL; in the assay with Bacillus subtilis 10707 (setting [8]), 0.08 µg/mL; in assay [4] (setting [9]) it was more than 20 µg/mL; in assay [5] (setting [10]), 0.63 µg/mL.

Regarding `CO[C@@]12[C@H](COC(N)=O)C3=C(C(=O)C(C)=C(NCCSSC[C@H](NC(=O)CC[C@H](N)C(=O)O)C(=O)NCC(=O)O)C3=O)N1C[C@@H]1N[C@@H]12` [Compound 22, 7-N-[2-[(γ-L-Glutamyl-L-cysteinylglycin-S-yl)thio]ethyl]mitomycin C potassium salt], the MIC in assay [1] is 0.63 µg/mL; in assay [2] (setting [6]) it was 2.5 µg/mL; in assay [3] (setting [7]) it was 1.3 µg/mL; in the assay on Bacillus subtilis 10707 (setting [8]), 0.08 µg/mL; in assay [4] (setting [9]), more than 20 µg/mL; in assay [5] (setting [10]), 0.31 µg/mL.

For the compound `CC1=C(NCCSSC[C@H](NC(=O)CC[C@H](N)C(=O)O)C(=O)NCC(=O)O)C(=O)C2=C(C1=O)N1C[C@H]3[C@H](N3C)[C@]1(O)[C@H]2COC(N)=O` (stereo partly drawn) [Compound 23, 7-N-[2-[(γ-L-glutamyl-L-cysteinylglycin-S-yl)thio]ethyl]-mitomycin D potassium salt], the MIC in assay [2] (setting [6]) turned out to be 13 µg/mL; in assay [3] (setting [7]), 6.3 µg/mL; with Bacillus subtilis 10707 (setting [8]) it was 6.3 µg/mL; in assay [5] (setting [10]), 6.3 µg/mL.

For the compound `CCOC(=O)CNC(=O)[C@H](CSSCCNC1=C(C)C(=O)C2=C(C1=O)[C@@H](COC(N)=O)[C@@]1(OC)[C@H]3N[C@H]3CN21)NC(=O)CC[C@H](N)C(=O)O` [Compound 25, 7-N-[2-[(γ-L-Glutamyl-L-cysteinyl-ethyl-glycinat-S-yl)thio]ethyl]mitomycin C], the MIC in assay [1] came to 2.5 µg/mL (≈ 3.43 µM); in assay [2] (setting [6]), 10 µg/mL (≈ 13.7 µM); in assay [3] (setting [7]) it was 0.63 µg/mL (≈ 0.866 µM); in the assay on Bacillus subtilis 10707 (setting [8]), 0.04 µg/mL (≈ 0.055 µM); in assay [5] (setting [10]), 0.16 µg/mL (≈ 0.22 µM).

Take `CCOC(=O)CNC(=O)[C@H](CSSCCNC1=C(C)C(=O)C2=C(C1=O)[C@H](COC(N)=O)[C@@]1(O)[C@@H]3[C@H](CN21)N3C)NC(=O)CC[C@H](N)C(=O)O` (some centres unmarked) [Compound 26]: the MIC in assay [1] was 25 µg/mL (≈ 34.3 µM); in assay [2] (setting [6]) it was 13 µg/mL (≈ 17.9 µM); in assay [3] (setting [7]) it was 13 µg/mL (≈ 17.9 µM); with Bacillus subtilis 10707 (setting [8]), 1.6 µg/mL (≈ 2.2 µM); in assay [5] (setting [10]) it was 6.3 µg/mL (≈ 8.66 µM).

With `CO[C@@]12[C@H](COC(N)=O)C3=C(C(=O)C(C)=C(N)C3=O)N1C[C@@H]1N[C@@H]12` [MM-C, Mitomycin C, reference compound], the MIC in assay [2] (ATCC6897, agar dilution method, pH 7.0, read-out: MIC, Proteus vulgaris (PV)) amounted to 0.04 µg/mL (≈ 0.12 µM); in assay [3] (ATCC10541, agar dilution method, pH 7.0, read-out: MIC, Streptococcus faecalis (SF)), 0.04 µg/mL (≈ 0.12 µM); in the assay on Bacillus subtilis 10707 (Bacillus subtilis, 10707, agar dilution method, pH 7.0, read-out: MIC, Bacillus subtilis (BS)) it was 0.01 µg/mL (≈ 0.0299 µM); in assay [4] (ATCC9290, agar dilution method, pH 7.0, read-out: MIC, Shigella sonnei (SS)), 1.3 µg/mL (≈ 3.89 µM); in assay [5] (agar dilution method, pH 7.0, read-out: MIC, Staphylococcus aureus (SA)), 0.02 µg/mL (≈ 0.0598 µM).
